The values below come from patent publication US8450333B2, “Molecules for regulating cell death” (The Regents of The University of California, priority 2003, dated 2013).

The subject of experiment [1] is mammalian COS cells. The experiment in a line: Mitochondrial fragmentation induced by staurosporine (STS) in COS cells. Format: cell-based. Particulars: COS cells stimulated with STS; mfisi-1 at 50 μM; n=100. An excerpt: As indicated above, we observed that mfisi-1 causes changes in mitochondrial morphology in mammalian cells that are consistent with a block in mitochondrial fission. Thus, we examined the effects of mfisi-1 on mitochondrial fragmentation caused by the intrinsic apoptotic stimulus staurosporine (STS) in mammalian COS cells. […] These observations indicate that mfisi-1 retards apoptosis-stimulated Drp1-dependent mitochondrial fission.

For a further experiment, the target named is T1, recombinant Dnm1 (Saccharomyces cerevisiae, UniProt P54861).
T1 construct: made in house; host or cells: insect cells (baculovirus expression system)
T1 sequence (P54861 1-757): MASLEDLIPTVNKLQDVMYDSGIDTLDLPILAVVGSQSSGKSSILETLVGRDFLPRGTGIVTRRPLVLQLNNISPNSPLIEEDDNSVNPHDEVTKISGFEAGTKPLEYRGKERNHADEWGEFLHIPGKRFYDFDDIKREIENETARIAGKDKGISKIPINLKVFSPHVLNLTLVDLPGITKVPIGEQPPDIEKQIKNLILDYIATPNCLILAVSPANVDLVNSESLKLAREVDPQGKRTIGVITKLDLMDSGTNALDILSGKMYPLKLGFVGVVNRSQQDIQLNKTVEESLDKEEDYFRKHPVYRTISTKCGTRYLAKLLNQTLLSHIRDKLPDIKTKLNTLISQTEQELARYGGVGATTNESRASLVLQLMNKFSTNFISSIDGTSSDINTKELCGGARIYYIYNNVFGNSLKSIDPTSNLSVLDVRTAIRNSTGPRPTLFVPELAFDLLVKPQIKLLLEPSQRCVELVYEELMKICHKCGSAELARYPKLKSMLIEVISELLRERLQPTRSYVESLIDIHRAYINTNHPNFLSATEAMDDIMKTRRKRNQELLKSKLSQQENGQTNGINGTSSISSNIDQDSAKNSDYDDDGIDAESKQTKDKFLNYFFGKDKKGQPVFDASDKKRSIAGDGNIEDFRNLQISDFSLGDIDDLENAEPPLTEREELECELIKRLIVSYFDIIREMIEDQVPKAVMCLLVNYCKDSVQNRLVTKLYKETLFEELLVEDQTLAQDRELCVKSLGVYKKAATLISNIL
In words: Dnm1 GTPase activity, radioactive TLC-based assay. It counts as biochemical, yeast. From the text: In order to discern a detailed mechanism for mitochondrial fission, we have begun to purify and characterize activities associated with known fission components, with the ultimate goal of reconstituting this event in vitro. Towards this goal, we have successfully expressed and purified active recombinant Dnm1 (the yeast mitochondrial fission DRP) from insect cells, using a baculovirus expression system. Using an established radioactive TLC-based assay for GTPase activity, we characterized the kinetic properties of recombinant Dnm1 under low salt conditions (FIG. 10A). […] The Km for GTP for Dnm1 is near 200 μM, greater than that observed for assembled dynamin (˜10 μM). The significance of this difference as it relates to the function of these DRPs will be interesting to determine.
Determining the mechanism of mfisi-1 inhibition is critical for assessing how DRPs function in mitochondrial fission. We will perform standard steady-state kinetic assays to determine the mechanism of inhibition by mfisi-1 using established GTPase assays in the presence of variable concentrations of substrate (GTP) and mfisi-1. […] Nucleotides are resolved using thin layer chromatography, and quantification of GTP and GDP product is performed using a Phosphorimager. All rates are calculated using time points where product formation is linear over time.

In the next experiment the test system is wild type yeast cells. In words: Mitochondrial morphology in yeast (secondary screen, mitochondrial targeted GFP). It counts as cell-based, S. cerevisiae. From the text:
Secondary screens: Compounds identified in the primary growth assay-based screens outlined above are screened secondarily by examining their effects on mitochondrial morphology. We use the steady state structure of mitochondria as an indicator of the relative rates of mitochondrial fission and fusion in cells. […] Mitochondria are visualized using a mitochondrial targeted GFP that is efficiently targeted to both wild type and respiratory deficient mitochondria (Tieu et al., 2000 The Journal of Cell Biology 151, 353-365.).
All compounds identified in the primary growth assay-based screens outlined above were screened secondarily by examining their effects on mitochondrial morphology in yeast. From previous work, we know that the steady state structure of mitochondria is an indicator of the relative rates of mitochondrial fission and fusion in cells (FIG. 7). Specifically, net-like structures indicate a block in fission, and fragmented mitochondrial structures indicate a block in fusion. […] In this secondary assay, small molecules were judged to be a hit if they produced a mutant phenotype in greater than 5% of the cell population.
To determine what structural features are important for the effects of mfisi-1 on mitochondrial fission, we identified structurally related molecules using a chemoinformatics approach. We utilized web-based ChemNavigator to search available public and commercial compound databases for small molecules that uniquely represented key structural features of mfisi-1. We tested a total of 15 small molecules related to mfisi-1 for their effects on mitochondrial morphology in yeast, each at a concentration of 50 μM (Table 3).

For experiment [2], the system named is mammalian COS cells. The experiment in a line: Mitochondrial morphology in mammalian COS cells. Format: cell-based. From the text: Drp1, the mammalian mitochondrial fission DRP, has a high degree of similarity and identity to its yeast ortholog, Dnm1. This encouraged us to exploit the chemical genetic approach and examine the effects of mfisi-1 on mitochondrial morphology in mammalian cells. In mammalian cells, it has been established that when fission is retarded by expression of dominant-negative Drp1, mitochondria become progressively more interconnected, form net-like structures, and collapse into degenerate perinuclear structures in cells. Remarkably, the addition of mfisi-1 to mammalian COS cells in culture caused a rapid and reversible change in mitochondrial morphology equivalent to that observed upon expression of dominant negative Drp1 in double-binded experiments (FIG. 12, n=100: untreated; 0% collapsed nets, 14% loose nets, 70% reticular, 15% fragmented; mfisi-1 treated; n=100, 19% collapsed nets, 45% loose nets, 36% reticular, 0% fragmented). The EC50 of mfisi-1 effects on mitochondrial morphology in mammalian cells is similar to that observed for the effect of mfisi-1 on mitochondrial morphology in yeast (EC50=10 µM).

Setting [3] is: Structure Function Analysis of A1, A2, and A3, fraction of yeast cells.
[4] abbreviates: fraction of wild type yeast cells.

Usually IC50 stands for the point on the concentration scale where inhibition reaches its midpoint. One may read the EC50 as the concentration at which the effect is half-maximal. On to `COc1cc(-n2c(S)nc3ccccc3c2=O)c(Cl)cc1Cl` [mfisi-1, 3-(2,4-Dichloro-5-methoxy-phenyl)-2-mercapto-3H-quinazolin-4-one], for which, in the experiment with mammalian COS cells [1], the “% collapsed nets” value is given as 0%, the “% fragmented” value was 46%, the “% loose nets” value worked out at 8% and the “% reticular” value is recorded as 46%. In addition, the IC50 at recombinant Dnm1 was roughly 10 µM. For the same compound, on recombinant Dnm1 (mfisi-1 at its IC50, GTP 10 μM-2 mM), the “mode of inhibition versus GTP” value is recorded as “NOT a pure competitive inhibitor”. Further, in the experiment with wild type yeast cells, the “effect on mitochondrial morphology in yeast cells” value is recorded as “caused the formation of mitochondrial net-like structures”. Further, the IC50 in the experiment with wild type yeast cells (Saccharomyces cerevisiae, read-out: IC50, formation of net-like mitochondria) was in the range of 10 to 20 µM. Also, in the experiment on wild type yeast cells (setting [3]), the Fragmented entry is reported as “.05”, the Nets entry is “.55” and the Reticular result is recorded as “.40”. Besides, in the experiment on wild type yeast cells (setting [4]), the “Mitochondrial Morphology after Drug is Added: Fragmented” value is given as “.05”, the “Mitochondrial Morphology after Drug is Added: Nets” value is on record as “.55” and the “Mitochondrial Morphology after Drug is Added: Reticular” value is “.40”. Also, the “time after addition until net-like mitochondria form” value in the experiment with wild type yeast cells (wild type cells, sub-μM concentrations) was no more than 1 min. In addition, the “% net-like structures” value in the experiment with wild type yeast cells (yeast, each at a concentration of 50 μM) was found to be 60%. Moreover, in the experiment with mammalian COS cells [2] (COS cells, n=100), the “% collapsed nets” value is on record as 19%, the “% fragmented” value is recorded as 0%, the “% loose nets” value came to 45% and the “% reticular” value is listed as 36%. Besides, the EC50 in the experiment on mammalian COS cells [2] (COS, mammalian cells, similar to yeast, read-out: EC50, effects on mitochondrial morphology) turned out to be 10 µM.
